Values of other authors, collected in patent publication US7390503B1, “Ondansetron orally disintegrating tablets” (Barr Laboratories, Inc., priority 2003, dated 2008).
Counter-ions that a name gives are not always drawn. Like-named read-outs stand apart in the source and are kept apart here.

Settings: general statement, no test described

| solubility in water (hydrochloride dihydrate) | solubility in water | SMILES |
| --- | --- | --- |
| freely soluble in water | – | Cc1nccn1CC1CCc2c(c3ccccc3n2C)C1=O (centres unmarked) [Ondansetron hydrochloride dihydrate] |
| – | soluble in water | Cc1nccn1CC1CCc2c(c3ccccc3n2C)C1=O (centres unmarked) [ondansetron in free base form, 1,2,3,9-tetrahydro-9-methyl-3-[(2-methyl-1H-imidazol-1-yl)methyl]-4H-carbazol-4-one] |
